Data as given in article PMC5958743, “A Novel Catecholopyrimidine Based Small Molecule PDE4B Inhibitor Suppresses Inflammatory Cytokines in Atopic Mice” (Frontiers in Pharmacology, 2018).

What was measured:
DNCB-induced NC/Nga mice [1] = test: DNCB-induced atopic dermatitis model, evaluation of skin lesion and organs; format: in vivo, mouse; details: for dorsal skin thickness / spleen weight / subiliac lymph node size / subiliac lymph node weight / week after which significant reduction in dermatitis score was observed / scratching frequency (DNCB-induced itching sensation) / dermatitis score / AD-like skin features (erythema, hemorrhage, dry skin): DNCB-induced mice; for dorsal skin thickness: end of experiment, DNCB alone 1.19 mm, control 0.45 mm; for dorsal skin thickness / spleen weight / subiliac lymph node size / subiliac lymph node weight: topical 1% compound 1 or 0.3% compound 2; for spleen weight / subiliac lymph node size / subiliac lymph node weight / AD-like skin features (erythema, hemorrhage, dry skin): vs DNCB alone; for week after which significant reduction in dermatitis score was observed / scratching frequency (DNCB-induced itching sensation) / dermatitis score / AD-like skin features (erythema, hemorrhage, dry skin): topical once daily, 1% compound 1 or 0.3% compound 2; for scratching frequency (DNCB-induced itching sensation): measured once-a-week for 5 weeks; for dermatitis score: p < 0.01 vs DNCB; for skin feature of compound alone treated mice: no DNCB, topical 1% compound 1 or 0.3% compound 2 with vehicle alone
Method: (§1) Male NC/Nga mice, 7-weeks-old, were purchased from Central Lab Animal Inc., South Korea. All mice were housed in specific pathogen-free conditions at the animal facility center of the College of Pharmacy at Seoul National University (Seoul, Korea), and were maintained at 24 – 26°C with a 12 h light and dark cycle. Animal experiments were conducted in accordance with protocols approved by the Institutional Animal Care and Use Committee of Seoul National University.
(§2) NC/Nga mice were classified into six groups (n = 6): (1) vehicle alone, acetone-olive oil (Sigma-Aldrich, St. Louis, MO, United States) in a ratio of 3:1 was used as a vehicle; (2) 1% of compound-1 with vehicle alone; (3) 0.3% of compound-2 with vehicle alone; (4) DNCB+vehicle; (5) DNCB + 1% of compound-1 mixed with vehicle; and (6) DNCB + 0.3% of compound-2 mixed with vehicle. DNCB (Sigma-Aldrich, St. Louis, MO, United States) was used to induce AD on the dorsal skin of the mice. Compound 1 and 2 were dissolved in 150 μl of vehicle and topically applied on the atopic tissue. Hair on the backs of the mice were removed using an electric clipper. Two days later, 150 μl of 1% DNCB was dissolved in the vehicle and applied on the dorsal skin twice with an interval period of 4 days. Afterward, 150 μl of 0.2% DNCB dissolved in the vehicle was applied to challenge the dorsal skin twice-a-week for 5 weeks. AD-induced mice were co-treated with either compound-1 or compound-2 once daily from day six onward until the end of the experiments.
Dermatitis score was measured according to a previously established method, once-a-week for 5 weeks ([Matsuda et al., 1997]). Skin features of dermatitis, such as erythema/hemorrhage, edema, excoriation/erosion, and scaling/dryness were considered in the evaluation. Each symptom was scored as follows: 0 (none); 1 (mild); 2 (moderate); and 3 (severe). The sum of all the scores was defined as the dermatitis score of individual mice, which ranged between 0 and 12. In addition, the scratching behavior of the experimental animals was measured once-a-week for 5 weeks. Specifically, we measured the frequency with which the mice rubbed their dorsal skin, hind paws, nose, and ears for 10 min.

Raw 264.7 cells [2] = test: Intracellular cAMP in LPS-stimulated macrophage cell line (ELISA); format: cell-based; details: 30 nM compound 1 or 15 nM compound 2 for 1 h, then 1 μM LPS 30 min
Method: (§3) The macrophage cell line, Raw 264.7 was maintained for 24 h in serum free DMEM medium. Then, cells were incubated with 30 nM of compound 1 and 15 nM of compound 2 for 1 h. After incubation, 1 μM of LPS (Sigma-Aldrich, United States) was added and incubated for 30 min at 37°C in a humidified 5% CO2 atmosphere. Finally, cells were lysed and supernatants were harvested. Intracellular cAMP levels were measured using the cAMP ELISA kit according to the manufacturer’s instruction (ADI-900-066; Enzo Life Sciences, United States). Similarly, TNFα level was assayed by ELISA analysis according to the manufacturer’s protocol (LEGEND MAX^TM Human TNF-α ELISA Kit, San Diego, CA, United States). Concentration is expressed in pg/mL.

PDE4A4 = target: T1, PDE4A4 (Homo sapiens, UniProt P27815); test: PDE enzyme inhibitor assay (LANCE Ultra cAMP), PDE4A; format: biochemical; details: 0.1 ng/well enzyme, 3 nM cAMP, 37°C 1 h
T1 construct: purchased BPS Biosciences
Method: (§4) The enzyme inhibition assay was performed against human PDE enzymes (PDE1A, PDE3A, PDE4A, PDE4B, PDE4C, PDE4D, and PDE7A; BPS Biosciences, San Diego, CA, United States) according to the manufacturer’s instructions (LANCE Ultra cAMP assay kit; Perkin Elmer, United States). In each well, 5 μl of 3 nM cAMP, 2.5 μl of PDE enzyme (0.1 ng/well), and 2.5 μl of inhibitor solution were added, and incubated at 37°C for 1 h. After incubation, 5 μL each of Eu-cAMP and ULight-anti-cAMP detection reagent supplemented with 1 mM of IBMX were added. The reaction mixture was incubated at 37°C for 1 h. After incubation, emission signals were collected at 665 nm using EnVision Multilable Reader (Perkin Elmer, United States).

PDE4C1 = target: T2, PDE4C1 (Homo sapiens, UniProt Q08493); test: PDE enzyme inhibitor assay (LANCE Ultra cAMP), PDE4C; format: biochemical; details: 0.1 ng/well enzyme, 3 nM cAMP, 37°C 1 h
T2 construct: purchased BPS Biosciences
T2 sequence (Q08493 whole entry): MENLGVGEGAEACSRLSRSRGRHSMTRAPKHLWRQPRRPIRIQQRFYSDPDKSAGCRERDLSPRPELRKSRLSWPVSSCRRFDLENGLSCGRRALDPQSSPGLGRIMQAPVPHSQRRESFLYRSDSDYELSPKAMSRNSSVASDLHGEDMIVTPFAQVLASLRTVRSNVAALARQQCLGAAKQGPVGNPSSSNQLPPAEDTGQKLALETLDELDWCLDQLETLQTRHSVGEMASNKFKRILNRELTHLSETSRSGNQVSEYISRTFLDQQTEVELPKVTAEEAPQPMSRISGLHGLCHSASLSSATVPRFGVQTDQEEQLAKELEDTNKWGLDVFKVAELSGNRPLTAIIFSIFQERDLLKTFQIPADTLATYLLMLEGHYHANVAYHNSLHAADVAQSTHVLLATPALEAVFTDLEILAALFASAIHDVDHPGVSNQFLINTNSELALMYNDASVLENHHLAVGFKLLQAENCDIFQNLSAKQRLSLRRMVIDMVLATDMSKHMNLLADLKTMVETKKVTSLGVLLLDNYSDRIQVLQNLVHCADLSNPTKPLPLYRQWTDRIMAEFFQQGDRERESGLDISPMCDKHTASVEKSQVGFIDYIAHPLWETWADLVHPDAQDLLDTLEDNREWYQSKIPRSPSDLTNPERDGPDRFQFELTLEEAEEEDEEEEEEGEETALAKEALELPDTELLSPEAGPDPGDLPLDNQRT
Method: as §4

PDE3B = PDE3B (Homo sapiens, UniProt Q13370); test: PDE enzyme inhibitor assay (LANCE Ultra cAMP), PDE3B; format: biochemical; details: 0.1 ng/well enzyme, 3 nM cAMP, 37°C 1 h
Chain of PDE3B (Q13370 whole entry): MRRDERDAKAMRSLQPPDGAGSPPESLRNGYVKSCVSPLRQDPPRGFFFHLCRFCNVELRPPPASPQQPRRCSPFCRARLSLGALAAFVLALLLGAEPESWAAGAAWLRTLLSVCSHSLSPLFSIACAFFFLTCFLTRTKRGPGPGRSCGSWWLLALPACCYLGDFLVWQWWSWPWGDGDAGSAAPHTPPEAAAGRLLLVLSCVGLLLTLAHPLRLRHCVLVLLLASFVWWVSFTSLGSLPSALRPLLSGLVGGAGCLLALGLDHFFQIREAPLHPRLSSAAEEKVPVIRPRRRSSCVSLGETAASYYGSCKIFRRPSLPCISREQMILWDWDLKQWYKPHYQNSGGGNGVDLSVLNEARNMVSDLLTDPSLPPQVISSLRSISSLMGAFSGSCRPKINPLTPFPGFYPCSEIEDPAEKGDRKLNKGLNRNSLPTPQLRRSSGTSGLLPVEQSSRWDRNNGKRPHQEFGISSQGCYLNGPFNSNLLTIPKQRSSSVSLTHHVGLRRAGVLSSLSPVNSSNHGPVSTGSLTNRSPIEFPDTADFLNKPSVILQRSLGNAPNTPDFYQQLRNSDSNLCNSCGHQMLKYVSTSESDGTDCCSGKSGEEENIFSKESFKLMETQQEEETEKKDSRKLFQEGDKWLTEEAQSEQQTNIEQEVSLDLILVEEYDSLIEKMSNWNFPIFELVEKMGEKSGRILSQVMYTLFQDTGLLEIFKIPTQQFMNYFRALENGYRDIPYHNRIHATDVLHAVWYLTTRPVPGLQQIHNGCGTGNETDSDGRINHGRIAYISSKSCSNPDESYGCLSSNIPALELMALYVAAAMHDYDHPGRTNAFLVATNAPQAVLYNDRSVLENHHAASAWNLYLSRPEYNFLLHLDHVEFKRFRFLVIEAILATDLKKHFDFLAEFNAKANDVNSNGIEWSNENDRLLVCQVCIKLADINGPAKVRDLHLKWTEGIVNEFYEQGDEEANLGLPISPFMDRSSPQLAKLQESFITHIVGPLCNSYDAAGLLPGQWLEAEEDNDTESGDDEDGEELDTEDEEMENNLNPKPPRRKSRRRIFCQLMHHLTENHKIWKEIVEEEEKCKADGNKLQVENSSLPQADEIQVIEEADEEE

DNCB-induced NC/Nga mice [3] = test: DNCB-induced atopic dermatitis model, histopathology and immunohistochemistry of dorsal skin; format: in vivo, mouse; details: for mast cell infiltration in the epidermis region (toluidine blue), number of mast cells: topical 1% compound 1 or 0.3% compound 2, DNCB alone 97 ± 10.58, control 13 ± 2; for CD4+ cells in the skin (immunohistochemistry) / epidermal thickening (H&E) / infiltration of inflammatory cells into epidermis and dermis (H&E): topical 1% compound 1 or 0.3% compound 2, vs DNCB alone
Method: as §1, §2
Skin samples collected from the experimental mice were fixed by using 10% neutral buffered formalin, and embedded in paraffin. 4-μm thin tissue sections were prepared and stained with hematoxylin and eosin (H&E; Sigma-Aldrich, United States). To investigate the mast cell infiltration, sections were stained with toluidine blue (Sigma-Aldrich, United States). For immunohistochemical analysis, tissue sections were microwaved in sodium citrate buffer for 10 min to retrieve the antigen/epitope. After incubating with 0.1% triton X-100 containing phosphate buffered saline (PBS), sections were blocked with 10% FBS. Then, sections were incubated overnight with primary antibodies specific for IL-4, 5, 17, IFN-γ, and CD4, respectively (Santa Cruz Biotechnology, Santa Cruz, CA, United States). After treatment with 0.3% H2O2 in 0.1 M PBS for 15 min, sections were incubated with HRP-conjugated secondary antibodies specific for IL-4, 5, 17, IFN-γ, and CD4 for 1 h at room temperature. Diaminobenzidine was used to detect peroxidase activity, which was photographed using an Olympus AX70 light microscope (Tokyo, Japan).

DNCB-induced NC/Nga mice [4] = test: DNCB-induced atopic dermatitis model, serum IgE and cytokines by ELISA; format: in vivo, mouse; details: for serum IL-4 level / serum IL-5 level: topical 1% compound 1 (p < 0.05) or 0.3% compound 2 (p < 0.01); for serum IL-4 level / serum IL-5 level / serum IL-17 level: vs DNCB alone; for serum IL-17 level: topical 1% compound 1 (p < 0.5) or 0.3% compound 2 (p < 0.01); for serum IFN-γ level (reduced by DNCB): topical 1% compound 1 or 0.3% compound 2; for serum IgE level: topical 1% compound 1 or 0.3% compound 2, p < 0.01 vs DNCB
Method: as §1, §2
On the final day of the experimental scheme, blood samples were collected from the experimental animals. Serum was isolated and stored at -80°C along with protease inhibitor cocktail for later use (Thermo Fisher Scientific, United States). Serum IL-4, IL-5, IL-17, IFN-γ, and IgE levels were measured according to the manufacturer’s instructions (Biolegend, San Diego, CA, United States; IL-4-431101; IL-17-432501; IL-5-431204; IFN-γ- 430801; IgE-432401; TNF-α- 430901). Serum samples were diluted five-fold for the cytokine assay. 10,000-fold diluted serum samples were utilized for the IgE assay. Absorbance was measured immediately at 492 nm using a multiplate reader (Molecular Devices Spectramax M5, Sunnyvale, CA, United States).

PDE4D7 = target: T3, PDE4D7 (Homo sapiens, UniProt Q08499); test: PDE enzyme inhibitor assay (LANCE Ultra cAMP), PDE4D; format: biochemical; details: for IC50: 0.1 ng/well enzyme, 3 nM cAMP, 37°C 1 h
T3 construct: purchased BPS Biosciences
T3 sequence (Q08499 1-748 isoform Q08499-11): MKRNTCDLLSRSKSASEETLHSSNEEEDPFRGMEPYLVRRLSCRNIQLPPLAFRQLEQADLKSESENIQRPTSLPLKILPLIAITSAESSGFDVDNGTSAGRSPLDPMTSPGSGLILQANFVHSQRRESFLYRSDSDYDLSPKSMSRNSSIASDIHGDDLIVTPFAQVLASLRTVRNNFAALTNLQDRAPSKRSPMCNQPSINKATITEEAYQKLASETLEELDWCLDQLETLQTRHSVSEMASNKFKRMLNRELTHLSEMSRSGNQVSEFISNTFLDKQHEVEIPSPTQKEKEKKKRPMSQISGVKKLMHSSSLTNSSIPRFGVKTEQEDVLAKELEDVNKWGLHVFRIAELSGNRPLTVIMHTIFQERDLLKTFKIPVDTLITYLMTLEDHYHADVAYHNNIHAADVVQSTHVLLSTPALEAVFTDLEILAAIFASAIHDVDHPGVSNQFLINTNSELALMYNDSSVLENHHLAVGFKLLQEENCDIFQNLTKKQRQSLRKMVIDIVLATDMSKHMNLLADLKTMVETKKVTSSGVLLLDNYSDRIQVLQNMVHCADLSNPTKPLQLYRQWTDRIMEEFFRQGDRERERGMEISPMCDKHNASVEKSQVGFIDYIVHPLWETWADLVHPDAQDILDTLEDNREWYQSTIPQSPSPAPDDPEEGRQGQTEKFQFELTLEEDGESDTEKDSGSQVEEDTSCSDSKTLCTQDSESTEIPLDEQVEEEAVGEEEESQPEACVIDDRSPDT
Method: as §4

PDE7 = target: T4, PDE7 (Homo sapiens, UniProt Q13946); test: PDE enzyme inhibitor assay (LANCE Ultra cAMP), PDE7; format: biochemical; details: 0.1 ng/well enzyme, 3 nM cAMP, 37°C 1 h
T4 construct: purchased BPS Biosciences
T4 sequence (Q13946 whole entry): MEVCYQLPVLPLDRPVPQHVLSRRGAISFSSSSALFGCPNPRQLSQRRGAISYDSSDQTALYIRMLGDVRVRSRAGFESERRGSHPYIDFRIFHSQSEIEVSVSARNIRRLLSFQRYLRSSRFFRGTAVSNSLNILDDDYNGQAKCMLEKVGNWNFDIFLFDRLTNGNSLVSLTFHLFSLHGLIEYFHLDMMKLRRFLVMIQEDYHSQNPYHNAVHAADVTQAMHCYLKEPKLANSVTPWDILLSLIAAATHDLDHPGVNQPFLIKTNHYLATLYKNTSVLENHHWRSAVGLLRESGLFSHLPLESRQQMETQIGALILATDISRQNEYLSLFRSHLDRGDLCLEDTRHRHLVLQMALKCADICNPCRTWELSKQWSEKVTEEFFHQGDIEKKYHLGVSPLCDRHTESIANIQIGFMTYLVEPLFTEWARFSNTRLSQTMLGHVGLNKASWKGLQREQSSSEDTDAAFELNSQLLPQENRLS
Method: as §4

PDE4B1 = target: T5, PDE4B1 (Homo sapiens, UniProt Q07343); test: PDE enzyme inhibitor assay (LANCE Ultra cAMP), PDE4B; format: biochemical; details: for IC50: 0.1 ng/well enzyme, 3 nM cAMP, 37°C 1 h; for specificity against PDE4B compared to other PDE enzymes: versus PDE1A, PDE3B, PDE4A, PDE4C, PDE4D, PDE7
T5 construct: purchased BPS Biosciences
T5 sequence (Q07343 whole entry): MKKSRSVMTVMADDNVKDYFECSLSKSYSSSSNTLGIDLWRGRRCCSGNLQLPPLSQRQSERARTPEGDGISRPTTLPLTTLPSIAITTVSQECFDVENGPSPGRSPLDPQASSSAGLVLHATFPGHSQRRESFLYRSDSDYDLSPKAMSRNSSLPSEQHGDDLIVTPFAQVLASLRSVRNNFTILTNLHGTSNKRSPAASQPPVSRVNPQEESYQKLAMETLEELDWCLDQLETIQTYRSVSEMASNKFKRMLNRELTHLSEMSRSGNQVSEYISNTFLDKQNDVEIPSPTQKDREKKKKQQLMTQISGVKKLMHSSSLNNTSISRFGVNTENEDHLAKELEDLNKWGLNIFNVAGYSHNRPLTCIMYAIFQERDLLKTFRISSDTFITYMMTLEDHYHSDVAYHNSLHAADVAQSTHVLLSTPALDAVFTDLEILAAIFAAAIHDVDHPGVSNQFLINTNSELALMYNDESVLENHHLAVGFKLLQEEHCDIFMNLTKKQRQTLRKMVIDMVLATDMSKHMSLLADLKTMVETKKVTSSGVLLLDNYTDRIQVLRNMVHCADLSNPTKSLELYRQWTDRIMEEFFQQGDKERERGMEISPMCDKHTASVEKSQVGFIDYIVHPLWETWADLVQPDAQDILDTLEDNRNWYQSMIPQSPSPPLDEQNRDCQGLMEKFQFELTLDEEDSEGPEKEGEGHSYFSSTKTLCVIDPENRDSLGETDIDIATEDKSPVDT

Raw 264.7 cells [5] = test: LPS-induced TNF-α in macrophage cell line (ELISA); format: cell-based; details: 30 nM compound 1 or 15 nM compound 2, 1 μM LPS 30 min
Method: as §3

PDE1A = target: T6, PDE1A (Homo sapiens, UniProt P54750); test: PDE enzyme inhibitor assay (LANCE Ultra cAMP), PDE1A; format: biochemical; details: 0.1 ng/well enzyme, 3 nM cAMP, 37°C 1 h
T6 construct: purchased BPS Biosciences
T6 sequence (P54750 whole entry): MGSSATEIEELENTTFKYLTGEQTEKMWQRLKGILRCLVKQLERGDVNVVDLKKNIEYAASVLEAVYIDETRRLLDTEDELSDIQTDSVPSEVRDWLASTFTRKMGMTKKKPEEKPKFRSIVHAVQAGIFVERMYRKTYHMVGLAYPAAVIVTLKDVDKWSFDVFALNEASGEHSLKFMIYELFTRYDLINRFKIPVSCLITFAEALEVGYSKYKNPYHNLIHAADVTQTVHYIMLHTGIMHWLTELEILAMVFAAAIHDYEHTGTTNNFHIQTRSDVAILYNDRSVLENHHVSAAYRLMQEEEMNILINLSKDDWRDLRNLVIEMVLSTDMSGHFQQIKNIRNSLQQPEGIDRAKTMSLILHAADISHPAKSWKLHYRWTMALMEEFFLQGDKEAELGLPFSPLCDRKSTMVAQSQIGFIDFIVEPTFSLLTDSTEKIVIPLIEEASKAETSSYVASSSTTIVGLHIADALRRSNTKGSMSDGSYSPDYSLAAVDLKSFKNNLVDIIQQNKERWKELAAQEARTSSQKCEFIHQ
Method: as §4

Row | IC50 (PDE4A4) [nM] | IC50 (PDE4C1) [nM] | IC50 (PDE3B) [nM] | Structure (SMILES) | dorsal skin thickness (DNCB-induced NC/Nga mice [1]) [mm] | spleen weight (DNCB-induced NC/Nga mice [1]) | subiliac lymph node size (DNCB-induced NC/Nga mice [1]) | subiliac lymph node weight (DNCB-induced NC/Nga mice [1]) | week after which significant reduction in dermatitis score was observed (DNCB-induced NC/Nga mice [1]) | scratching frequency (DNCB-induced itching sensation) (DNCB-induced NC/Nga mice [1]) | dermatitis score (DNCB-induced NC/Nga mice [1]) | AD-like skin features (erythema, hemorrhage, dry skin) (DNCB-induced NC/Nga mice [1]) | skin feature of compound alone treated mice (DNCB-induced NC/Nga mice [1]) | intracellular levels of cAMP (Raw 264.7 cells [2]) | mast cell infiltration in the epidermis region (toluidine blue), number of mast cells (DNCB-induced NC/Nga mice [3]) [per 350 μm^2] | CD4+ cells in the skin (immunohistochemistry) (DNCB-induced NC/Nga mice [3]) | epidermal thickening (H&E) (DNCB-induced NC/Nga mice [3]) | infiltration of inflammatory cells into epidermis and dermis (H&E) (DNCB-induced NC/Nga mice [3]) | serum IL-4 level (DNCB-induced NC/Nga mice [4]) | serum IL-5 level (DNCB-induced NC/Nga mice [4]) | serum IL-17 level (DNCB-induced NC/Nga mice [4]) | further results
1 | 45 ± 3.54 | 77 ± 8.8 | 800 ± 45.8 | COc1ccc(NC(=O)c2cnc(SC)nc2N2CCOCC2)cc1OC [compound 1, N-(3,4-dimethoxyphenyl)-2-(methylthio)-4-morpholinopyrimidine-5-carboxamide] | 0.78 | significantly reduced | drastically reduced | drastically reduced | third | significantly (p < 0.01) inhibited | significant reduction | reduced levels of erythema and hemorrhage and dry skin | normal skin feature, no sign of allergy was observed | significantly improved | 56 ± 11 | reduced levels of CD4+ cells | reduced epidermal thickening | reduced levels of inflammatory cells | significantly reversed | significantly reversed | reduced level | serum IFN-γ level (reduced by DNCB) (DNCB-induced NC/Nga mice [4]): significantly reversed; serum IgE level (DNCB-induced NC/Nga mice [4]): significantly reduced; IC50 (PDE4D7): 220 ± 16.3 nM; IC50 (PDE7): 389 ± 26.3 nM; IC50 (PDE4B1): 31 ± 7.17 nM; specificity against PDE4B compared to other PDE enzymes (PDE4B1): not exclusive to PDE4B alone; LPS-induced TNF-α synthesis (Raw 264.7 cells [5]): effectively inhibited; IC50 (PDE1A): 756 ± 59 nM
2 | 152 ± 1.33 | 57 ± 4.87 | 169 ± 3.78 | COc1ccc(-c2nc(C(F)(F)F)ncc2C(=O)Nc2ccncc2)cc1OC [compound 2, 4-(3,4-dimethoxyphenyl)-N-(pyridin-4-yl)-2-(trifluoromethyl)pyrimidine-5-carboxamide] | 0.64 | significantly reduced | drastically reduced | drastically reduced | second | significantly (p < 0.01) inhibited | significant reduction | reduced levels of erythema and hemorrhage and dry skin | normal skin feature, no sign of allergy was observed | significantly improved | 29.41 ± 6 | reduced levels of CD4+ cells | reduced epidermal thickening | reduced levels of inflammatory cells | significantly reversed | significantly reversed | reduced level | serum IFN-γ level (reduced by DNCB) (DNCB-induced NC/Nga mice [4]): significantly reversed; serum IgE level (DNCB-induced NC/Nga mice [4]): significantly reduced; IC50 (PDE4D7): 108 ± 3.78 nM; concentration required to inhibit PDE4D relative to PDE4B (PDE4D7; PDE4D versus PDE4B): nearly sevenfold higher concentration; IC50 (PDE7): 250 ± 14.6 nM; IC50 (PDE4B1): 15 ± 0.4 nM; specificity against PDE4B compared to other PDE enzymes (PDE4B1): high specificity against PDE4B; LPS-induced TNF-α synthesis (Raw 264.7 cells [5]): effectively inhibited; IC50 (PDE1A): 98 ± 8.45 nM
